Calls of active or inactive are those of the source. The calls are words filed in the database; no cut-off is given here.
Columns and labels:
MCF7 [1] = assay: Induction of apoptosis in human MCF7 cells assessed as increase in cleaved caspase-9 level at 2 uM incubated for 48 hrs by Western blot analysis; format: functional, cell-based
[2] = biological target: T1, E3 ubiquitin-protein ligase Mdm2 (Homo sapiens, UniProt Q00987); assay: Inhibition of MDM2 in human MCF7 cells assessed as increase in p53 accumulation at 0.5 to 2 uM incubated for 48 hrs by Western blot analysis; format: cell-based; details: dose 0.5-2 µM
Target sequence in this assay (Q00987 whole entry, looked up): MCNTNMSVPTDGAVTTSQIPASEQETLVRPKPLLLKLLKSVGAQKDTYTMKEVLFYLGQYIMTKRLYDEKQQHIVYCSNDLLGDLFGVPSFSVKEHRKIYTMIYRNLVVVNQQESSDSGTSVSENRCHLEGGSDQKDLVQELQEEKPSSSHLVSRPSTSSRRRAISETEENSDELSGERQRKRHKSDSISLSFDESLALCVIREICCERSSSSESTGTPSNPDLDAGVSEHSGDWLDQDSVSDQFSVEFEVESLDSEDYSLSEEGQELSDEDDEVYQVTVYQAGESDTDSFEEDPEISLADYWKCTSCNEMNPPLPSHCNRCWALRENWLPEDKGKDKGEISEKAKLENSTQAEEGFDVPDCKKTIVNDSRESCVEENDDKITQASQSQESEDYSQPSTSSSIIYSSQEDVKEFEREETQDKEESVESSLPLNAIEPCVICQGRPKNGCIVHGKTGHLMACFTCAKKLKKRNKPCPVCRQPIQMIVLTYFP

[3] = biological target: T2, Phospholipid hydroperoxide glutathione peroxidase GPX4 (Homo sapiens) (UniProt P36969); assay: Binding affinity in GPX4 in human MCF7 cells assessed as increase in stability in 60 and 65 degreeC at 100 uM by cellular thermal shift assay; format: cell-based
T2 sequence (whole entry): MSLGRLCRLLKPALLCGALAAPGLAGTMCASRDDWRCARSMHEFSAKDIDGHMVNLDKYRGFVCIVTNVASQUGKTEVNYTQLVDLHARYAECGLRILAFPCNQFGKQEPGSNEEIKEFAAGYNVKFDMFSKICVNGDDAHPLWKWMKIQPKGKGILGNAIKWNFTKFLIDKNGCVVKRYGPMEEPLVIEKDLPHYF

[4] = biological target: T1, E3 ubiquitin-protein ligase Mdm2; assay: Inhibition of MDM2 (unknown origin) using peptide as substrate incubated for 30 mins by fluorescence polarization assay
Target sequence in this assay (Q00987 whole entry): as the sequence (Q00987 whole entry, looked up) above

MCF-10A = assay: Cytotoxicity against human MCF-10A cells assessed as reduction in cell viability incubated for 48 hrs by CCK8 assay; format: cell-based
MCF7 [5] = assay: Antiproliferative activity against human MCF7 cells assessed as reduction in cell growth incubated for 48 hrs by CCK8 assay; details: MCF7, 48 h
MCF7 [6] = assay: Antiproliferative activity against human MCF7 cells assessed as reduction in cell growth incubated for 48 hrs in presence of Fer-1 by CCK8 assay; details: MCF7, 48 h
[7] = biological target: T1, E3 ubiquitin-protein ligase Mdm2; assay: Inhibition of MDM2 in human MCF7 cells assessed as increase in MDM2 accumulation at 0.5 to 2 uM incubated for 48 hrs by Western blot analysis; format: cell-based; details: dose 0.5-2 µM
Target sequence in this assay (Q00987 whole entry, looked up): as the sequence (Q00987 whole entry, looked up) above

[8] = biological target: T2, Phospholipid hydroperoxide glutathione peroxidase GPX4 (Homo sapiens); assay: Inhibition of GPX4 in human MCF7 cells assessed as increase in GPX4 degradation incubated for 48 hrs by Western blot analysis; format: cell-based; details: dose 0.1-2 µM
MCF7 [9] = assay: Induction of apoptosis in human MCF7 cells assessed as viable cells at 0.1 uM incubated for 48 hrs by annexin-V-FITC and PI staining based flow cytometry analysis (reference value: 93.1 %); format: functional; details: read-out: Activity
MCF7 [10] = assay: Induction of apoptosis in human MCF7 cells assessed as early apoptotic cells at 0.1 uM incubated for 48 hrs by annexin-V-FITC and PI staining based flow cytometry analysis (reference value: 1.05 %); format: functional
MCF7 [11] = assay: Induction of apoptosis in human MCF7 cells assessed as late apoptotic cells at 0.1 uM incubated for 48 hrs by annexin-V-FITC and PI staining based flow cytometry analysis (reference value: 2.61 %); format: functional
MCF7 [12] = assay: Induction of apoptosis in human MCF7 cells assessed as necrotic cells at 0.1 uM incubated for 48 hrs by annexin-V-FITC and PI staining based flow cytometry analysis (reference value: 3.21 %); format: functional
MCF7 [13] = assay: Induction of apoptosis in human MCF7 cells assessed as viable cells at 0.5 uM incubated for 48 hrs by annexin-V-FITC and PI staining based flow cytometry analysis (reference value: 93.1 %); format: functional; details: read-out: Activity
MCF7 [14] = assay: Induction of apoptosis in human MCF7 cells assessed as early apoptotic cells at 0.5 uM incubated for 48 hrs by annexin-V-FITC and PI staining based flow cytometry analysis (reference value: 1.05 %); format: functional
MCF7 [15] = assay: Induction of apoptosis in human MCF7 cells assessed as late apoptotic cells at 0.5 uM incubated for 48 hrs by annexin-V-FITC and PI staining based flow cytometry analysis (reference value: 2.61 %); format: functional
MCF7 [16] = assay: Induction of apoptosis in human MCF7 cells assessed as necrotic cells at 0.5 uM incubated for 48 hrs by annexin-V-FITC and PI staining based flow cytometry analysis (reference value: 3.21 %); format: functional
MCF7 [17] = assay: Induction of apoptosis in human MCF7 cells assessed as viable cells at 1 uM incubated for 48 hrs by annexin-V-FITC and PI staining based flow cytometry analysis (reference value: 93.1 %); format: functional; details: read-out: Activity
MCF7 [18] = assay: Induction of apoptosis in human MCF7 cells assessed as early apoptotic cells at 1 uM incubated for 48 hrs by annexin-V-FITC and PI staining based flow cytometry analysis (reference value: 1.05 %); format: functional
MCF7 [19] = assay: Induction of apoptosis in human MCF7 cells assessed as late apoptotic cells at 1 uM incubated for 48 hrs by annexin-V-FITC and PI staining based flow cytometry analysis (reference value: 2.61 %); format: functional
MCF7 [20] = assay: Induction of apoptosis in human MCF7 cells assessed as necrotic cells at 1 uM incubated for 48 hrs by annexin-V-FITC and PI staining based flow cytometry analysis (reference value: 3.21 %); format: functional
MCF7 [21] = assay: Induction of apoptosis in human MCF7 cells assessed as viable cells at 1 uM incubated for 48 hrs in presence of Fer-1 by annexin-V-FITC and PI staining based flow cytometry analysis (reference value: 93.1 %); format: functional; details: read-out: Activity
MCF7 [22] = assay: Induction of apoptosis in human MCF7 cells assessed as early apoptotic cells at 1 uM incubated for 48 hrs in presence of Fer-1 by annexin-V-FITC and PI staining based flow cytometry analysis (reference value: 1.05 %); format: functional
MCF7 [23] = assay: Induction of apoptosis in human MCF7 cells assessed as necrotic cells at 1 uM incubated for 48 hrs in presence of Fer-1 by annexin-V-FITC and PI staining based flow cytometry analysis (reference value: 3.21 %); format: functional
MCF7 [24] = assay: Induction of ROS production in human MCF7 cells at 1 uM by DCFH-DA assay; format: functional, cell-based
MCF7 [25] = assay: Induction of LPO production in human MCF7 cells at 1 uM by C11-BODIPY staining based confocal laser scanning microscopic analysis; format: functional, cell-based
MCF7 [26] = assay: Induction of ROS production in human MCF7 cells at 1 uM in presence of Fer-1 by DCFH-DA assay; format: functional, cell-based
MCF7 [27] = assay: Induction of LPO production in human MCF7 cells at 1 uM in presence of Fer-1 by C11-BODIPY staining based confocal laser scanning microscopic analysis; format: functional, cell-based
MCF7 [28] = assay: Antitumor activity against human MCF7 cells xenografted in BALB/c mouse assessed as tumor growth inhibition at 25 to 50 mg/kg, ip administered once for 17 days; format: functional, organism-based; details: dose 25-50 mg/kg, time 17.0 day
[29] = Toxicity in BALB/c mouse xenografted with human MCF7 cells assessed as effect on body weight at 25 to 50 mg/kg, ip administered once for 17 days; format: organism-based; details: in vivo, 408 h, dose 25-50 mg/kg, time 17 day
MCF7 [30] = assay: Antitumor activity against human MCF7 cells xenografted in BALB/c mouse assessed as reduction in Ki-67 expression at 25 to 50 mg/kg, ip administered once for 17 days by immunohistochemical analysis; format: functional, organism-based; details: dose 25-50 mg/kg, time 17.0 day
[31] = biological target: E3 ubiquitin-protein ligase Mdm2 (Mus musculus) (UniProt P23804); assay: In vivo inhibition of MDM2 in human MCF7 cells xenografted in BALB/c mouse assessed as increase in p53 expression at 25 to 50 mg/kg, ip administered once for 17 days by immunofluorescence analysis; format: functional, organism-based; details: dose 25-50 mg/kg, time 17.0 day
Sequence of E3 ubiquitin-protein ligase Mdm2 (Mus musculus) (P23804 whole entry): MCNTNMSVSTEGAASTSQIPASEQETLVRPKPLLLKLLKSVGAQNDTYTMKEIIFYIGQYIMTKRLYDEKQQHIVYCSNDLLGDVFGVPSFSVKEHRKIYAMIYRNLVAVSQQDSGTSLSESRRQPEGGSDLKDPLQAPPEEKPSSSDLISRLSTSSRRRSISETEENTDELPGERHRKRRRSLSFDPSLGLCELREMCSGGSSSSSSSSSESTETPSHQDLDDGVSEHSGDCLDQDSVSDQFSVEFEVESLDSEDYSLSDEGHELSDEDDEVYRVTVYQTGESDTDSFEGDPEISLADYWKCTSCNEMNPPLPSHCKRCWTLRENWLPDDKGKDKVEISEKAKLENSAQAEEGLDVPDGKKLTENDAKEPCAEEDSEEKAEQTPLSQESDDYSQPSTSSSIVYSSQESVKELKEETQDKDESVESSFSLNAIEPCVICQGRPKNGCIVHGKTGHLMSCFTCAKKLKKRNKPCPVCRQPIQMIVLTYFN

Mus musculus = assay: In vivo induction of apoptosis in human MCF7 cells xenografted in BALB/c mouse assessed as increase in TUNEL expression at 25 to 50 mg/kg, ip administered once for 17 days by immunohistochemical analysis; format: functional, organism-based; details: dose 25-50 mg/kg, time 17.0 day
MCF7 [32] = assay: Induction of apoptosis in human MCF7 cells assessed as late apoptotic cells at 1 uM incubated for 48 hrs in presence of Fer-1 by annexin-V-FITC and PI staining based flow cytometry analysis (reference value: […] %); format: functional

Cc1noc([C@@H]2[C@@H](c3ccccc3)[C@H](C(F)(F)F)N[C@@]23C(=O)Nc2cc(Cl)ccc23)c1[N+](=O)[O-]
Activity (MCF7 [1]): Active | inhibition [2]: Active | Activity [3]: Active | Ki [4]: 240 nM | Activity (MCF-10A): Non-Toxic | IC50 (MCF7 [5]): 120 nM | IC50 (MCF7 [6]): 13500 nM | inhibition [7]: Active | inhibition [8]: Active | viability at 0.1 µM (MCF7 [9]): 91.3% | Activity (MCF7 [10]): 1.39% | Activity (MCF7 [11]): 2.85% | Activity (MCF7 [12]): 4.51% | viability at 0.5 µM (MCF7 [13]): 83.8% | Activity (MCF7 [14]): 7.81% | Activity (MCF7 [15]): 3.16% | Activity (MCF7 [16]): 5.25% | viability at 1 µM (MCF7 [17]): 81.2% | Activity (MCF7 [18]): 11.3% | Activity (MCF7 [19]): 4.91% | Activity (MCF7 [20]): 2.61% | viability at 1 µM (MCF7 [21]): 84% | Activity (MCF7 [22]): 7.98% | Activity (MCF7 [23]): 3.35% | Activity (MCF7 [24]): Active | Activity (MCF7 [25]): Active | Activity (MCF7 [26]): inactive | Activity (MCF7 [27]): inactive | TGI (MCF7 [28]): Active | Activity [29]: Non-Toxic | Activity (MCF7 [30]): Active | inhibition [31]: Active | Activity (Mus musculus): Active | Activity (MCF7 [32]): 4.71%

— ChEMBL document CHEMBL4813989, “Design, synthesis, and biological evaluation of nitroisoxazole-containing spiro[pyrrolidin-oxindole] derivatives as novel glutathione peroxidase 4/mouse double minute 2 dual inhibitors that inhibit breast adenocarcinoma cell proliferation” (Eur J Med Chem, 2021)
